One test deals with human DGKζ (Homo sapiens (Human), UniProt Q13574). In words: DGKζ LIPGLO assay (extruded liposome substrate). As to conditions: extruded liposome substrate; read-out: DGKζ LIPGLO IC50. In kind it is biochemical. The method in brief:
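Sf9-derived DGKζ was premixed 10 min with PC/DAG/PS liposomes (100 nm extruded) in MOPS pH 7.5 buffer containing NaCl, MgCl2, CaCl2 and DTT.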

Another test has as its target human DGKα (Homo sapiens (Human), UniProt P23743). In words: DGKα LIPGLO assay (extruded liposome substrate). In kind it is biochemical. The method in brief: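 Human full-length DGKα, His-tagged and produced in Sf9 cells, assayed at 20 nM (4× stock) on extruded liposomes of PS, 0.25 mM DAG and 2.75 mM PC, preincubated 10 min. Reaction started with 300 μM ATP (stock) and ran 1 h in MOPS pH 7.5/MgCl2/CaCl2/DTT buffer.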

A further test concerns naïve human CD8 T cells. In words: cells. As to conditions: Homo sapiens, T-cell, read-out: HuCD8 INFG Normalized EC50, anti-CD3 plus anti-CD28 as baseline; 3 μM Example 40 co-stimulation as 100% activation. The method, then:
Frozen naïve human CD8 T cells were thawed in ATM-V media, incubated for 2 h in 37° C., and counted. The 384-well tissue culture plate was coated overnight at 4° C. with 20 μl anti-human CD3 at 0.05 μg/mL in PBS, which was removed off the plate before 40,000 cells per 40 microliters CD8 T cells with 0.1 μg/mL soluble anti-human CD28 were added to each well. The compounds were transferred using an Echo liquid handler to the cell plate immediately after the cells were plated. After 20 h incubation at 37° C. incubator, 3 microliters per well supernatants transferred into a new 384-well white assay plate for cytokine measurement.
Interferon-γ (IFN-γ) was quantitated using the AlphaLISA kit (Cat #AL217) as described by the manufacturer manual (Perkin Elmer). The counts from each well were converted to IFN-γ concentration […].

In general, IC50 refers to the concentration at which inhibition is half-maximal. By EC50 is commonly meant the concentration giving half of the maximal effect.

human DGKζ, sequence (Q13574 other isoform, or with tags, fused parts or gaps): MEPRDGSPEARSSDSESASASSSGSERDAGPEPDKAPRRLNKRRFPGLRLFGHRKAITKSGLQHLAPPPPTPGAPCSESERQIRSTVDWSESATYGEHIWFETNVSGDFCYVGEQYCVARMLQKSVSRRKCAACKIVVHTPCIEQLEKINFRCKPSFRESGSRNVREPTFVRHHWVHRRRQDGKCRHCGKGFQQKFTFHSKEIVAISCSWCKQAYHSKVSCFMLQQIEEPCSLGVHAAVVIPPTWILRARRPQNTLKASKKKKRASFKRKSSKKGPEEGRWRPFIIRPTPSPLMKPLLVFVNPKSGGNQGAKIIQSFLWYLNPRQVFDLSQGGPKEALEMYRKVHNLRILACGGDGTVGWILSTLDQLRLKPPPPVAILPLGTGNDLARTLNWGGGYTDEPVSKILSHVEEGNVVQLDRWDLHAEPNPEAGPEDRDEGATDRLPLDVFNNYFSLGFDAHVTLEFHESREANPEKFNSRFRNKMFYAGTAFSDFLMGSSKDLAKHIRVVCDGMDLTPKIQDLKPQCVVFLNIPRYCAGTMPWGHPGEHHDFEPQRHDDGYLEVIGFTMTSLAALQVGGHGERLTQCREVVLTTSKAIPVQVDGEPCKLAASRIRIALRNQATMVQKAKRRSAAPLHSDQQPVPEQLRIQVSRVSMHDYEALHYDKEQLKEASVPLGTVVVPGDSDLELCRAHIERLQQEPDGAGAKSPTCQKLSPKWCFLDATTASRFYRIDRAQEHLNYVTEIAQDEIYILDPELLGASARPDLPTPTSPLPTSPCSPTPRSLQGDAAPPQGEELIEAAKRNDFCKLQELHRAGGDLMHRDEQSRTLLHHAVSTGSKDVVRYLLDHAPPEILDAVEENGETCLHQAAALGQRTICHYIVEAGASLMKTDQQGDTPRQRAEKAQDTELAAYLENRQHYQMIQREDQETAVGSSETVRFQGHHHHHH
human DGKα, sequence (P23743 other isoform, or with tags, fused parts or gaps): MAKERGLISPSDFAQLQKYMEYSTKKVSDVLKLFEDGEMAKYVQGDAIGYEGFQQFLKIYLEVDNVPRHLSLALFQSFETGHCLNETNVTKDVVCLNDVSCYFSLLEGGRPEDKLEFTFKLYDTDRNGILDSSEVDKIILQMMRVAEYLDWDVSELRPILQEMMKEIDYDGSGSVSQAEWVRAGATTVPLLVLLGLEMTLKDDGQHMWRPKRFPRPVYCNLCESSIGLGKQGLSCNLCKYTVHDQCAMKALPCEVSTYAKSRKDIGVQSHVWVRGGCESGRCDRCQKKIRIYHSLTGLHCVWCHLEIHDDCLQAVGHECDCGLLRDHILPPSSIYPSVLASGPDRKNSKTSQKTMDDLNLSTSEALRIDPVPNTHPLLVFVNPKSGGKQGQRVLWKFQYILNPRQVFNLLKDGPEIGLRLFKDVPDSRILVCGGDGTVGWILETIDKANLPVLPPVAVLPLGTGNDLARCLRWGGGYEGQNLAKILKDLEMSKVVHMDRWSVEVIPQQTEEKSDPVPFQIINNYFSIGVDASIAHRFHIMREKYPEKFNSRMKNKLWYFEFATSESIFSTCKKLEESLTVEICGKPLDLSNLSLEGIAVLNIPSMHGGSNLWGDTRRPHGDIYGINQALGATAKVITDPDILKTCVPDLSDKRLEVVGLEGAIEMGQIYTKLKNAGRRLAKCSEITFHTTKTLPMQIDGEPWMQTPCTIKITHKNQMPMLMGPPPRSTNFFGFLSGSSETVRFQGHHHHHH

For `COc1ccc2c(n1)c(N1CCN(C(c3ccc(F)cc3)c3ccc(F)cc3OC)CC1)c(C#N)c(=O)n2C` (single isomer, unassigned) [Example 413, 4-{4-[(4-fluoro-2-methoxyphenyl)(4-fluorophenyl)methyl]piperazin-1-yl}-6-methoxy-1-methyl-2-oxo-1,2-dihydro-1,5-naphthyridine-3-carbonitrile], the half-inhibitory concentration (IC50) came to 0.97 µM on human DGKζ and 3.3 µM against human DGKα. Moreover, the EC50 in the test with naïve human CD8 T cells is 0.04 µM.

With `COc1cc(F)ccc1C(c1ccc(F)cc1OC)N1CCN(c2c(C#N)c(=O)n(C)c3ccc(C)nc23)CC1` [Example 251, 4-{4-[bis(4-fluoro-2-methoxyphenyl)methyl]piperazin-1-yl}-1,6-dimethyl-2-oxo-1,2-dihydro-1,5-naphthyridine-3-carbonitrile], the IC50 was 9 µM on human DGKζ and greater than 240 µM against human DGKα. The EC50 in the test on naïve human CD8 T cells is 0.58 µM.

On to `COCCC(C)N1CCN(c2c(C#N)c(=O)n(C)c3ccc(C)nc23)CC1` (stereo not drawn) [Example 252, 4-[4-(4-methoxybutan-2-yl)piperazin-1-yl]-1,6-dimethyl-2-oxo-1,2-dihydro-1,5-naphthyridine-3-carbonitrile], for which the half-maximal inhibitory concentration (IC50) at human DGKζ is 200 µM; against human DGKα, greater than 240 µM. The EC50 in the test on naïve human CD8 T cells stood at 10 µM.

As for `Cc1ccc2c(n1)c(N1CCN(C3CCOc4ccccc43)CC1)c(C#N)c(=O)n2C` (stereo not drawn) [Example 253, 4-[4-(3,4-dihydro-2H-1-benzopyran-4-yl)piperazin-1-yl]-1,6-dimethyl-2-oxo-1,2-dihydro-1,5-naphthyridine-3-carbonitrile], the IC50 on human DGKζ is 7.4 µM; against human DGKα, 40 µM. For the same compound, the EC50 in the test on naïve human CD8 T cells amounted to 2.51 µM.

`Cc1ccc2c(n1)c(N1CCN(C(c3ccc(F)cc3)c3ccccn3)CC1)c(C#N)c(=O)n2C` (stereo not drawn) [Example 256, 4-{4-[(4-fluorophenyl)(pyridin-2-yl)methyl]piperazin-1-yl}-1,6-dimethyl-2-oxo-1,2-dihydro-1,5-naphthyridine-3-carbonitrile]: the values for the IC50 on human DGKζ and at human DGKα were 10 µM and 2.7 µM, respectively. Also, the EC50 in the test with naïve human CD8 T cells turned out to be 0.24 µM.

In the case of `Cn1c(=O)c(C#N)c(N2CCN(C(c3ccc(Cl)cc3)c3ccc(Cl)cc3)CC2)c2nc(Br)ccc21` [Example 393, 4-{4-[bis(4-chlorophenyl)methyl]piperazin-1-yl}-6-bromo-1-methyl-2-oxo-1,2-dihydro-1,5-naphthyridine-3-carbonitrile], the results for the IC50 on human DGKζ and at human DGKα were greater than 240 µM and 9 µM, respectively. Moreover, in the test on naïve human CD8 T cells, the EC50 is 0.17 µM.

Regarding `Cn1c(=O)c(C#N)c(N2CCN(C(c3ccc(Cl)cc3)c3ccc(Cl)cc3)CC2)c2nc(C#N)ccc21` [Example 394, 8-{4-[bis(4-chlorophenyl)methyl]piperazin-1-yl}-5-methyl-6-oxo-5,6-dihydro-1,5-naphthyridine-2,7-dicarbonitrile], the IC50 was determined as 1.2 µM on human DGKζ and 3.9 µM against human DGKα. For the same compound, the EC50 in the test with naïve human CD8 T cells came to 0.01 µM.

Consider `COc1ccc2c(n1)c(N1CCN(C(c3ccc(Cl)cc3)c3ccc(Cl)cc3)CC1)c(C#N)c(=O)n2C` [Example 395, 4-{4-[bis(4-chlorophenyl)methyl]piperazin-1-yl}-6-methoxy-1-methy-2-oxo-1,2-dihydro-1,5-naphthyridine-3-carbonitrile], for which the IC50 at human DGKζ came out at 3 µM; on human DGKα, 14 µM. Besides, the EC50 in the test with naïve human CD8 T cells stood at 0.09 µM.

Regarding `COc1ccc2c(n1)c(N1CCN(C(c3ccc(F)cc3)c3cccnc3OC)CC1)c(C#N)c(=O)n2C` (stereo not drawn) [Example 396, 4-{4-[(4-fluorophenyl)(2-methoxypyridin-3-yl)methyl]piperazin-1-yl}-6-methoxy-1-methyl-2-oxo-1,2-dihydro-1,5-naphthyridine-3-carbonitrile], the values for the IC50 at human DGKζ and against human DGKα were 5.8 µM and 21 µM, respectively. Moreover, the EC50 in the test with naïve human CD8 T cells came out at 2.66 µM.

`COc1ccc2c(n1)c(N1CCN(C(c3ccc(F)cc3)c3ncccc3OC)CC1)c(C#N)c(=O)n2C` (stereo not drawn) [Example 397, 4-{4-[(4-fluorophenyl)(3-methoxypyridin-2-yl)methyl]piperazin-1-yl}-6-methoxy-1-methyl-2-oxo-1,2-dihydro-1,5-naphthyridine-3-carbonitrile]: the figures for the half-maximal inhibitory concentration (IC50) at human DGKζ and on human DGKα were 13 µM and 16 µM, respectively. In the test with naïve human CD8 T cells, the EC50 amounted to 4.47 µM.

For `Cn1c(=O)c(C#N)c(N2CCN(C(c3ccc(F)cc3)c3ccccn3)CC2)c2nc(C#N)ccc21` (stereo not drawn) [Example 400, 8-{4-[(4-fluorophenyl)(pyridin-2-yl)methyl]piperazin-1-yl}-5-methyl-6-oxo-5,6-dihydro-1,5-naphthyridine-2,7-dicarbonitrile], the IC50 at human DGKζ was determined as 2.1 µM; against human DGKα, 5.4 µM. In the test with naïve human CD8 T cells, the EC50 was found to be 0.05 µM.

For `COc1ccc2c(n1)c(N1CCN(C(c3ncccn3)c3ccc(F)cc3OC)CC1)c(C#N)c(=O)n2C` (stereo not drawn) [Example 401, 4-{4-[(4-fluoro-2-methoxyphenyl)(pyrimidin-2-yl)methyl]piperazin-1-yl}-6-methoxy-1-methyl-2-oxo-1,2-dihydro-1,5-naphthyridine-3-carbonitrile], the IC50 came to 7.6 µM on human DGKζ and 81 µM against human DGKα. Further, the EC50 in the test on naïve human CD8 T cells stood at 10 µM.

Regarding `COc1ccc2c(n1)c(N1CCN(C(c3ccc(F)cc3OC)c3ccc(F)cc3OC)CC1)c(C#N)c(=O)n2C` [Example 402, 4-{4-[bis(4-fluoro-2-methoxyphenyl)methyl]piperazin-1-yl}-6-methoxy-1-methyl-2-oxo-1,2-dihydro-1,5-naphthyridine-3-carbonitrile], the IC50 came out at 3.5 µM on human DGKζ and 160 µM against human DGKα. Further, in the test on naïve human CD8 T cells, the EC50 came out at 1.78 µM.

On to `COc1ccc2c(n1)c(N1CCN(C(c3ccc(F)cc3)c3ccccn3)CC1)c(C#N)c(=O)n2C` (stereo not drawn) [Example 403, 4-{4-[(4-fluorophenyl)(pyridin-2-yl)methyl]piperazin-1-yl}-6-methoxy-1-methyl-2-oxo-1,2-dihydro-1,5-naphthyridine-3-carbonitrile], for which the IC50 on human DGKζ worked out at 5.7 µM; at human DGKα it was 26 µM. Further, the EC50 in the test with naïve human CD8 T cells was found to be 1.49 µM.

Turning to `COc1cccnc1C(c1ccc(F)cc1)N1CCN(c2c(C#N)c(=O)n(C)c3ccc(C#N)nc23)CC1` (stereo not drawn) [Example 410, 8-{4-[(4-fluorophenyl)(3-methoxypyridin-2-yl)methyl]piperazin-1-yl}-5-methyl-6-oxo-5,6-dihydro-1,5-naphthyridine-2,7-dicarbonitrile], the IC50 at human DGKζ was found to be 2.2 µM; on human DGKα it was 5.4 µM. Besides, in the test on naïve human CD8 T cells, the EC50 was 0.09 µM.

`Cn1c(=O)c(C#N)c(N2CCN(C(c3ccccc3)c3ccc(F)cc3)CC2)c2nc(C#N)ccc21` (stereo not drawn) [Example 411, 8-{4-[(4-fluorophenyl)(phenyl)methyl]piperazin-1-yl}-5-methyl-6-oxo-5,6-dihydro-1,5-naphthyridine-2,7-dicarbonitrile]: the values for the IC50 on human DGKζ and against human DGKα were 1.4 µM and 4.9 µM, respectively. Also, the EC50 in the test on naïve human CD8 T cells was determined as 0.02 µM.

On to `Cn1c(=O)c(C#N)c(N2CCN([C@@H](c3ccccc3)c3ccc(Cl)cc3)CC2)c2nc(C#N)ccc21` [Example 414, 8-{4-[(S)-(4-chlorophenyl)(phenyl)methyl]piperazin-1-yl}-5-methyl-6-oxo-5,6-dihydro-1,5-naphthyridine-2,7-dicarbonitrile], for which the IC50 worked out at 1.5 µM on human DGKζ and 9 µM on human DGKα. The EC50 with naïve human CD8 T cells was found to be 0.16 µM.

As for `COc1cc(C)ccc1C(c1ccc(F)cc1)N1CCN(c2c([N+](=O)[O-])c(=O)n(C)c3ccc(C#N)nc23)CC1` (stereo not drawn) [Example 416, 8-{4-[(4-fluorophenyl)(2-methoxy-4-methylphenyl)methyl]piperazin-1-yl}-5-methyl-7-nitro-6-oxo-5,6-dihydro-1,5-naphthyridine-2-carbonitrile], the IC50 on human DGKζ was 0.91 µM; against human DGKα it was 4.8 µM. For the same compound, the EC50 with naïve human CD8 T cells was 0.03 µM.

For the compound `Cn1c(=O)cc(N2CCN(C(c3ccc(F)cc3)c3ccc(F)cc3)CC2)c2nc(C#N)ccc21` [Example 432, 8-{4-[bis(4-fluorophenyl)methyl]piperazin-1-yl}-5-methyl-6-oxo-5,6-dihydro-1,5-naphthyridine-2-carbonitrile], the IC50 on human DGKζ is 5.4 µM; on human DGKα, greater than 240 µM. Also, the EC50 in the test on naïve human CD8 T cells was found to be 0.06 µM.

Values taken from patent US11866430B2, “Naphthyridinone compounds useful as T cell activators” (priority 2018, dated 2024).
